In patent US6441180B1, “Tetrazolyl-phenyl actamide glucokinase activators” (Hoffmann-La Roche Inc., priority 2000, dated 2002):

A melting point of 73 to 78 °C was found for `Cc1nnnn1-c1ccc(C(CC2CCCC2)C(=O)Nc2ccc(Br)cn2)cc1F` (stereo not drawn) [Example 2, N-(5-Bromo-pyridin-2-yl)-3-cyclopentyl-2-[3-fluoro-4-(5-methyl-tetrazol-1-yl)-phenyl]-propionamide] in this work. A melting point of 190 to 193 °C was found for `Cc1nnnn1-c1ccc(C(CC2CCCC2)C(=O)Nc2nccs2)cc1Cl` (stereo not drawn) [Example 3, 2-[3-Chloro-4-(5-methyl-tetrazol-1-yl)-phenyl]-3-cyclopentyl-N-thiazol-2-yl-propionamide] in this work. A melting point of 186 to 192 °C was found for `CNC(=O)NC(=O)/C(=C/C1CCCC1)c1ccc(-n2nnnc2C)c(F)c1` [Example 22, (E)-1-{3-Cyclopentyl-2-[3-fluoro-4-(5-methyl-tetrazol-1-yl)-phenyl]-acryloyl}-3-methyl-urea] in this work. A melting point of 158 to 162 °C was found for `Cc1nnnn1-c1ccc(/C(=C\C2CCCC2)C(=O)Nc2nccs2)cc1F` [Example 12, (E)-3-Cyclopentyl-2-[3-fluoro-4-(5-methyl-tetrazol-1-yl)-phenyl]-N-thiazol-2-yl-acrlamide] in this work. A melting point of 148 to 154 °C was found for `Cc1nnnn1-c1cc(C(CC2CCCC2)C(=O)Nc2nccs2)ccc1S(C)(=O)=O` (stereo not drawn) [Example 9, 3-Cyclopentyl-2-[4-methanesulfonyl-3-(5-methyl-tetrazol-1-yl)-phenyl]-N-thiazol-2-yl-propionamide] in this work. A melting point of 185 to 186 °C was found for `CNC(=O)NC(=O)C(CC1CCCC1)c1ccc(-n2nnnc2C)c(Cl)c1` (stereo not drawn) [Example 11, 1-{2-[3-Chloro-4-(5-methyl-tetrazol-1-yl)-phenyl]-3-cyclopentyl-propionyl}-3-methyl-urea] in this work.
